Source: PMC5859971 (Genes & Development, 2018)
Where “and” joins values, the source holds several entries; their conditions need not be identical. Equal values may be shown once. Read-outs that look alike come from different tables or passages of the source.

How the values were obtained:
HCT116-PHF5A^R38C = assay: CellTiter-Glo viability assay, HCT116-PHF5A^R38C; type: cell-based, human; settings: for GI50: Homo sapiens, 72 h, read-out: HCT116-PHF5A^R38C GI50
Protocol: (§1) To further validate the pose of the compound, we analyzed the activity of several related chemical probes using the SPA with the purified protein complex ([Teng et al. 2017]). The SPA is formatted as a competition assay in which the purified protein complex is captured on a bead containing scintillant, incubated with test compounds over a dose response, and then competed off with a fixed concentration of ^3H-Plad compound. IC50 curves are then measured from the resulting light emitted from the bead (Table 1; Supplemental Fig. S4). In addition, we tested the probes in viability assays in two engineered cell lines: HCT116-PHF5A^WT and the sensitization line HCT116-PHF5A^R38C (Table 1; Supplemental Fig. S5). This facilitates profiling of chemical probe activity in the PHF5A background (wild type and mutant). The relative expression levels were further confirmed by Western blot analysis (Supplemental Fig. S5).
(§2) Parental HCT116 cells were obtained from American Type Culture Collection and cultured in RPMI 1640 medium supplemented with 10% fetal bovine serum. PHF5A R38C was generated using the Agilent QuikChange II kit and was cloned into pLenti6.3/V5 as described ([Teng et al. 2017]). The verified clone was used for lentivirus production using X293T cells. Parental HCT116 cells were infected with virus and selected with blasticidin S at 10 µg mL^−1 for 1 wk. Engineered cell lines were subsequently maintained in the absence of antibiotic. Transgene expression was confirmed by Western blot analysis (Supplemental Fig. S4). For Western blot analysis, α-PHF5A rabbit polyclonal antibody (Protein Tech, 15554-1-AP) was used at 1:1000 dilution in LI-COR buffer, and anti-rabbit secondary antibody (LI-COR) was used at 1:5000 dilution. The Western blot was imaged using an Odyssey V3.0 imager (LI-COR). For CellTiter-Glo analysis of the wild-type and PHF5A^R38C cell lines, 500 cells were seeded in each well of a 384-well plate 1 d before compound addition. Dose response was measured in 11-point serial dilutions with a top dose of 10 µM. The percentage of DMSO was controlled throughout, and a DMSO-only control was included. Seventy-two hours after dosing, CellTiter-Glo reagent was added, incubated, and assayed on an EnVision multilabel reader (PerkinElmer). Luminescence values from each treatment were normalized to the average value of the respective DMSO control. The dose response curve plots were generated in GraphPad Prism, and GI50 values were calculated from nonlinear regression analysis. GI50 values for the wild-type and R38C mutant cell lines were plotted in Spotfire.

[1] = target: T1, wild-type mini-SF3b complex (4-protein SF3b complex) (Homo sapiens, UniProt O75533+Q7RTV0); assay: Scintillation proximity assay (SPA) competition with 3H-labeled pladienolide probe; type: binding; settings: for activity after truncating the diene tail: assays of Table 1
T1 construct: SF3B1 was limited to the HEAT repeat domain from residues 454–1304 and cloned in-frame with an N-terminal Flag tag; Truncated SF3B1 and full-length SF3B3, PHF5A, and SF3B5 were synthesized; made in house; host or cells: SF21 insect cells (baculovirus, pFastBac1)
T1 sequence (Q7RTV0 whole entry, the tested form may be a part): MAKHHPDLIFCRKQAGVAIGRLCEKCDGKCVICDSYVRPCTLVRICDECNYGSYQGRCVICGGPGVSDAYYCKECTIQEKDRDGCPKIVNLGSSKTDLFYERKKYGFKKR
T1 sequence (Q15393 whole entry, further chain, the tested form may be a part): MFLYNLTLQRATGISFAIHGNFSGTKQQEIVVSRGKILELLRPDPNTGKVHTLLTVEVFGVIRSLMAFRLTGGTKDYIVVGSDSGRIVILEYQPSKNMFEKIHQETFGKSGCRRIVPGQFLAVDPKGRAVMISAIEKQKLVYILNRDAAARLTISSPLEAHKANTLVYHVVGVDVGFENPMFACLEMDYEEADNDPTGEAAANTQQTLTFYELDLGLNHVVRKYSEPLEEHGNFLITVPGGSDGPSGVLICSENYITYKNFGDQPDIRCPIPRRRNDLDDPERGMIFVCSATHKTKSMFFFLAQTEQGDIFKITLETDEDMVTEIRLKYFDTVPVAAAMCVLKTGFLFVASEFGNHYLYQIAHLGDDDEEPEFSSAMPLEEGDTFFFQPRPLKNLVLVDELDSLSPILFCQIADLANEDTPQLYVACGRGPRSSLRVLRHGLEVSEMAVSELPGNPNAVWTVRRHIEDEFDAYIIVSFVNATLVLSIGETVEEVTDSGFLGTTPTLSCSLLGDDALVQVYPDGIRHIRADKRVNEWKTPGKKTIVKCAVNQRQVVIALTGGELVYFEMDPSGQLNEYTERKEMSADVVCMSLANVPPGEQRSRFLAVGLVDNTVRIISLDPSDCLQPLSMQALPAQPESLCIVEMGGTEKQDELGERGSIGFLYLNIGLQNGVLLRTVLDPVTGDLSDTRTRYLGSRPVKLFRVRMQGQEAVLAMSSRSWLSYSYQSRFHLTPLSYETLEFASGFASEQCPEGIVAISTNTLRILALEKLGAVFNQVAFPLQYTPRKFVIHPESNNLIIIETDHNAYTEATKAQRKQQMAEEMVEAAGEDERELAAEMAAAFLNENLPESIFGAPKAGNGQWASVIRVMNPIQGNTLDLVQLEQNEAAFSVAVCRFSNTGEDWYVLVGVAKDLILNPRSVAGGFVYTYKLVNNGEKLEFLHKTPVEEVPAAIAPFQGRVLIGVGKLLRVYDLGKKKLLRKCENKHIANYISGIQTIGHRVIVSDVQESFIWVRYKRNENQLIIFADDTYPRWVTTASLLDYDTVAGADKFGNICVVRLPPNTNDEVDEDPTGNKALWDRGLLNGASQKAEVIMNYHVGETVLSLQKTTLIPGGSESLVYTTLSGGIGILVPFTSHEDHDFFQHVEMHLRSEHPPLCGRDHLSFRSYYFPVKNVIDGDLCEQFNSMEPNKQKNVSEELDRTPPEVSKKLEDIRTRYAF
T1 sequence (O75533 454-1304): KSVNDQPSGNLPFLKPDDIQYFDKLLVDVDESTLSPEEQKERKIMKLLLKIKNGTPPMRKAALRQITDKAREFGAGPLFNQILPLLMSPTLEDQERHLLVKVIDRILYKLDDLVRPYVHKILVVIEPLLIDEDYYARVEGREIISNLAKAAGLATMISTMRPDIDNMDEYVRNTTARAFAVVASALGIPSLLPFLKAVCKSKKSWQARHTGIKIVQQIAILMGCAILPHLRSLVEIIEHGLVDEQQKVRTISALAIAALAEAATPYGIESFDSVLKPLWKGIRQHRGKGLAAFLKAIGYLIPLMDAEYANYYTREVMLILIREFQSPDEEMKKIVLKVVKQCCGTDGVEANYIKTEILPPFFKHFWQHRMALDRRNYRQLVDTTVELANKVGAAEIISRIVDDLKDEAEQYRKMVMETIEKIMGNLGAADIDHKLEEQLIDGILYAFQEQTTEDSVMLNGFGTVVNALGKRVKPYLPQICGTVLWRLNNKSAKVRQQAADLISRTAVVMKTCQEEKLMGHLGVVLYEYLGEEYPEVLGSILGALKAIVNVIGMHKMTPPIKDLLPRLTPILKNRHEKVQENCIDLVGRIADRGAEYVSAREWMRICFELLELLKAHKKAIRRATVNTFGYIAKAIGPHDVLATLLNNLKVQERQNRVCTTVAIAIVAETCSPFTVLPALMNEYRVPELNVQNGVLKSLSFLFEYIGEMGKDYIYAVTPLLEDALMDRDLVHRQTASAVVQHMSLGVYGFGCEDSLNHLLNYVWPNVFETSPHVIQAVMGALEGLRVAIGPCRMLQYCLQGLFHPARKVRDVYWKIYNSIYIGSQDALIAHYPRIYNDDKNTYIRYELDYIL
T1 sequence (Q9BWJ5 whole entry, further chain, the tested form may be a part): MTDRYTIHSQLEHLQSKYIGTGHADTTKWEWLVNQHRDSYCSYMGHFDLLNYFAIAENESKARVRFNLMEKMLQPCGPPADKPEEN
Protocol: as §1
Batch immobilization of the anti-Flag antibody (Sigma) to the anti-mouse PVT SPA scintillation beads (PerkinElmer) was prepared as follows. For every 1.5 mg of beads, 10 µg of antibody was prepared in 150 µL of PBS. The antibody–bead mixture was incubated for 30 min at room temperature and centrifuged at 18,000g for 5 min. One-hundred-fifty microliters of PBS was used to resuspend every 1.5 mg of antibody–bead mixture. The aforementioned mini-SF3b complex was tested for ^3H-labeled pladienolide probe binding ([Kotake et al. 2007]). One-hundred microliters of binding reactions was prepared with […] of bead slurry and 0 or 50 nM protein in buffer (20 mM HEPES at pH 8, 200 mM KCl, 5% glycerol). The mixture was incubated for 30 min, and varying concentrations of ^3H-labeled pladienolide probe were added. The mixture was incubated for 30 min, and luminescence signals were read using a MicroBeta2 plate counter (PerkinElmer). Compound competition studies were performed with the wild-type mini-SF3b complex. One-hundred microliters of binding reactions was prepared with 50 µL of bead slurry, 25 nM protein in buffer, and compounds at varying concentrations. After 30 min of preincubation, 10 nM ^3H-labeled pladienolide probe was added. The reactions were incubated for 30 min, and luminescence signals were read.
The Scintillation proximity assay (SPA) competition assay with 10 nM 3H tracer for different Pladienolide analogs binding to the 4-protein SF3b complex. Error bars represent STD for 2 or more measurements. Red = E7107, Orange = PladD, Purple = PladF, Green = compound 2, red = compound 3, gray = compound 4, black = compound 5, blue = compound 6. […]

HCT116-PHF5A^WT = assay: CellTiter-Glo viability assay, HCT116-PHF5A^WT; type: cell-based, human; settings: for GI50: Homo sapiens, 72 h, read-out: HCT116-PHF5A^WT GI50
Protocol: as §1, §2

[2] = tested on: splicing of Ad2.2 pre-mRNA substrate; assay: In vitro splicing (IVS) assay, Ad2.2 substrate, HeLa S3 nuclear extracts, RT-qPCR; type: biochemical, human; settings: for IC50: Ad2.2 (weak) substrate; for inhibition of strong and weak IVS substrates: Ad2.1 and Ad2.2 substrates compared
Source text: (§3) A substrate competitive mechanism of action (MOA) would predict that weaker pre-mRNA substrates would be easier to inhibit than stronger substrates. To date, it has not been possible to evaluate substrate competition using traditional steady-state conditions because splicing reactions are thought to be single-turnover events in vitro, and therefore it is not possible to measure a KM for the pre-mRNA. […] Specifically, we engineered the strong in vitro splicing substrate Ad2.1 by enhancing the U2 snRNP base-pairing around the BPA found in the Ad2 substrate. We then engineered a weaker substrate, Ad2.2, by adding a decoy BPS lacking an extrahelical adenosine (Ad2.2) (Fig. 5A; Supplemental Vector NTI files; [Corrionero et al. 2011]). […] We then evaluated E7107 and several chemical probes to better understand their mechanism.
(§4) Figure 5. […] (A) Base-pairing logic for IVS substrates. (BPRS) Branch point recognition sequence in U2 snRNA; (BPS) the BPS in the pre-mRNA. The Ad2 gene BPS sequence (UACUUAU) was modified (UACUAAU) to strengthen the U2 base-pairing interactions flanking the BPA, leading to the Ad2.1 substrate (BPA in red). The Ad2.2 sequence has the same BPS as Ad2 but also contains a 5′ decoy BPS sequence (lacking an extrahelical adenine) that can base-pair with the BPRS. The decoy BPS and suboptimal BPS overlap, which gives U2 at least two possibilities for possible base pairing, as indicated. […] (B) RT-qPCR time-course data showing product formation over time. […] (C) Representative IC50 curves for compound 6 using the two different substrates (Ad2.1 and Ad2.2).
(§5) The Ad2-derived ([Pellizzoni et al. 1998]) sequence was cloned into the pGEM-3Z vector (Promega) using 5′ EcoRI and 3′ XbaI restriction sites. The Ad2 variant (Ad2.2) ([Seiler et al. 2018]) was cloned into pcDNA3.1(+) vector (Promega) using the same restriction sites. The plasmids were linearized using XbaI and used as DNA templates in the in vitro transcription reactions. The FtzΔi intron-less plasmid ([Luo and Reed 1999]) was linearized using EcoRI. All RNAs were in vitro transcribed and then purified using MegaScript T7 and MegaClear kits, respectively (Invitrogen). For splicing reactions used with the Ad2.2 substrate, […] reactions were prepared using 8 µg of nuclear extracts prepared from HeLa S3, a saturating excess of 2 ng of pre-mRNA substrate, 0.2 ng of FTZΔi, and varying concentrations of compounds or DMSO.

[3] = tested on: splicing of Ad2.1 pre-mRNA substrate; assay: In vitro splicing (IVS) assay, Ad2.1 substrate, HeLa S3 nuclear extracts, RT-qPCR; type: biochemical, human; settings: Ad2.1 (strong) substrate
Source text: as §3, §4, §5

[4] = tested on: HCT116 cell lines overexpressing PHF5A WT and mutants; assay: Viability curves in HCT116 cell lines overexpressing PHF5A WT and mutants; type: cell-based, human
Protocol: Parental HCT116 cells were obtained from American Type Culture Collection and cultured in RPMI 1640 medium supplemented with 10% fetal bovine serum. […] Parental HCT116 cells were infected with virus and selected with blasticidin S at 10 µg mL^−1 for 1 wk. Engineered cell lines were subsequently maintained in the absence of antibiotic. Transgene expression was confirmed by Western blot analysis (Supplemental Fig. S4). For Western blot analysis, α-PHF5A rabbit polyclonal antibody (Protein Tech, 15554-1-AP) was used at 1:1000 dilution in LI-COR buffer, and anti-rabbit secondary antibody (LI-COR) was used at 1:5000 dilution. The Western blot was imaged using an Odyssey V3.0 imager (LI-COR). For CellTiter-Glo analysis of the wild-type and PHF5A^R38C cell lines, 500 cells were seeded in each well of a 384-well plate 1 d before compound addition. Dose response was measured in 11-point serial dilutions with a top dose of 10 µM. The percentage of DMSO was controlled throughout, and a DMSO-only control was included. Seventy-two hours after dosing, CellTiter-Glo reagent was added, incubated, and assayed on an EnVision multilabel reader (PerkinElmer). Luminescence values from each treatment were normalized to the average value of the respective DMSO control. The dose response curve plots were generated in GraphPad Prism, and GI50 values were calculated from nonlinear regression analysis. […]

[5] = competition with 10 nM 3H-labeled pladienolide probe, 25 nM protein, read-out: SPA IC50

CO[C@H]([C@@H](C)[C@H]1O[C@]1(C)C[C@H](C)/C=C/C=C(\C)[C@H]1O[C@@H](CC(=O)O)CC[C@@H]1C)[C@@H](C)O [herboxidiene]
PHF5A^R38C sensitization phenotype (words) (HCT116-PHF5A^R38C; R38C vs wild type): not and did not exhibit this sensitization phenotype and lie near the line of unity

C/C(=C\C(=O)O)[C@H]1OC(=O)C[C@H](O)CC[C@@](C)(O)[C@@H](OC(=O)N2CCN(C3CCCCCC3)CC2)/C=C/[C@@H]1C [Compound 4]
activity after truncating the diene tail [1]: completely eliminates activity
IC50 [1, 5]: > 4000 nM
GI50 (HCT116-PHF5A^WT; CellTiter-Glo): > 400 nM
GI50 (HCT116-PHF5A^R38C; CellTiter-Glo): > 400 nM
IC50 [2]: > 25000 nM
IC50 [3]: > 25000 nM

C/C(=C\CO)[C@H]1OC(=O)C[C@H](O)CC[C@@](C)(O)[C@@H](OC(=O)N2CCN(C3CCCCCC3)CC2)/C=C/[C@@H]1C [Compound 5]
activity after truncating the diene tail [1]: completely eliminates activity
IC50 [1, 5]: > 4000 nM
GI50 (HCT116-PHF5A^WT; CellTiter-Glo): > 400 nM
GI50 (HCT116-PHF5A^R38C; CellTiter-Glo): > 400 nM
IC50 [2]: 16000 nM
IC50 [3]: > 25000 nM

CO[C@]1(C)C[C@@]2(CO2)[C@H](O)[C@@H](/C=C/C(C)=C/C[C@@H]2O[C@H](C)[C@H](NC(=O)/C=C\[C@H](C)OC(C)=O)C[C@@H]2C)O1 [spliceostatin]
PHF5A^R38C sensitization phenotype (words) (HCT116-PHF5A^R38C; R38C vs wild type): did not exhibit this sensitization phenotype
PHF5A^R38C sensitization phenotype (words) (HCT116-PHF5A^R38C; R38C vs wild type, listed as Spliceostatin): lie near the line of unity

CCC(O)C(C)C1OC1CC(C)(O)C=CC=C(C)C1OC(=O)CC(O)CCC(C)(O)C(OC(=O)N2CC[N+](C)(C3CCCCCC3)CC2)C=CC1C (centres unmarked) [Compound 1]
GI50 (HCT116-PHF5A^WT; CellTiter-Glo): > 400 nM
GI50 (HCT116-PHF5A^R38C; CellTiter-Glo): > 400 nM
inhibition of strong and weak IVS substrates [2]: inhibit both the strong and weak substrates equally well
IC50 [2]: 184 nM and 177 nM
IC50 [3]: 177 nM and 184 nM

C/C(=C\C=C\[C@@H](C)c1ccccn1)[C@H]1OC(=O)C[C@H](O)CC[C@@](C)(O)[C@@H](OC(=O)N2CCN(C3CCCCCC3)CC2)/C=C/[C@@H]1C [Compound 6]
IC50 [1, 5]: 376 nM
loss of potency relative to E7107 in the SPA ([1]; relative to E7107): sixfold
GI50 (HCT116-PHF5A^WT; CellTiter-Glo): 34 nM
loss of potency relative to E7107 in viability assays (HCT116-PHF5A^WT): ~10 fold
GI50 (HCT116-PHF5A^R38C; CellTiter-Glo): 11 nM
inhibition of strong and weak IVS substrates [2]: inhibit only the weak substrate
IC50 [2]: 23 nM
IC50 [3]: > 25000 nM

CC(C)C[C@H](NC(=O)[C@H](Cc1ccccc1)NC(=O)c1cnccn1)B(O)O [bortezomib]
PHF5A^R38C sensitization phenotype (words) (HCT116-PHF5A^R38C; R38C vs wild type): lie near the line of unity
killing of cell lines irrespective of PHF5A mutation status [4]: kills all of the cell lines at the same concentration

CCC(O)C(C)C1OC1CC(C)(O)C=CC=C(C)C1OC(=O)CC(OC(=O)C2CC2)CCC(C)(O)C(OC(=O)N2CCN(C3CCCCCC3)CC2)C=CC1C (centres unmarked) [Compound 3]
IC50 [1, 5]: > 4000 nM
activity in the SPA binding assay ([1]; relative to E7107): total loss of activity
GI50 (HCT116-PHF5A^WT; CellTiter-Glo): > 400 nM
GI50 (HCT116-PHF5A^R38C; CellTiter-Glo): 243 nM
IC50 [2]: 966 nM
IC50 [3]: > 25000 nM

CCC(O)C(C)C1OC1CC(C)(O)C=CC=C(C)C1OC(=O)CC(O)CCC(C)(O)C(O)C=CC1C (centres unmarked) [Plad F]
IC50 [1, 5]: 1500 nM
loss of potency relative to E7107 in the SPA ([1]; relative to E7107): 20 fold
GI50 (HCT116-PHF5A^WT; CellTiter-Glo): > 400 nM
loss of potency relative to E7107 in viability assays (HCT116-PHF5A^WT): > 200 fold
GI50 (HCT116-PHF5A^R38C; CellTiter-Glo): > 400 nM
inhibition of strong and weak IVS substrates [2]: inhibit only the weak substrate
IC50 [2]: 171 nM
IC50 [3]: > 25000 nM

CCC(O)C(C)C1OC1CC(C)(O)C=CC=C(C)C1OC(=O)CC(O)CCC(C)(O)C(OC(=O)N2CC[N+](Cc3ccccc3)(C3CCCCCC3)CC2)C=CC1C (centres unmarked) [Compound 2]
IC50 [1, 5]: 236 nM
GI50 (HCT116-PHF5A^WT): > 400 nM
GI50 (HCT116-PHF5A^R38C): 259 nM

CCC(O)C(C)C1OC1CC(C)(O)C=CC=C(C)C1OC(=O)CC(O)CCC(C)(O)C(OC(C)=O)C=CC1C (centres unmarked) [Plad D]
IC50 [1]: 97 nM
activity in the SPA binding assay [1]: nearly equipotent to E7107
GI50 (HCT116-PHF5A^WT): 26 nM
PHF5A^R38C sensitization phenotype (words) (HCT116-PHF5A^R38C): did not observe this trend
GI50 (HCT116-PHF5A^R38C): 18 nM

pladienolide B [PladB]
PHF5A^R38C sensitization phenotype (words) (HCT116-PHF5A^R38C; R38C vs wild type): did not observe this trend
